# Results as given in PMC8955139, “Identifying HSV-1 Inhibitors from Natural Compounds via Virtual Screening Targeting Surface Glycoprotein D” (Pharmaceuticals, 2022).
# Like-named read-outs stand apart in the source and are kept apart here.
# Tests used:
# HSV-1 [1] = settings: cited from earlier work
# ACV-resistant HSV-1 = tested on: ACV-resistant HSV-1; design: method as in PMID 9660995; settings: in vivo; cited from earlier work
# VERO cells [2] = assay: Cytotoxicity of ACs, WST-1, 24 h; settings: for Toxicity at the highest concentration tested compared with DMSO control: 100 µg/mL; for Highest Concentration with Cell Viability above 75%: 24 h, WST-1, tested 0.1-100 µg/mL; for Toxicity to the cells: 10 µg/mL
# [3] = Cytotoxicity of ACs, WST-1, 24 h; settings: African green monkey, VERO cells
# HSV-1 strain F [4] = assay: Plaque reduction dose-response assay in VERO cells; assay type: cell-based; settings: for EC50: Human alphaherpesvirus 1, plaque reduction
# HSV-1 strain F [5] = assay: Time of addition cytopathic effect (CPE) inhibition assay; assay type: cell-based; settings: for Antiherpetic activity in the in vitro assays: CPE inhibition, all stages, #28 at 10 µg/mL, #29 at 1 µg/mL
# VERO cells [6] = assay: Toxicity of AC#7 on VERO cells at high concentration (800 µM, 2 h exposure, 46 h); settings: viability 46 h later, WST-1
# HSV-1 [7] = assay: Pre-treatment of cells with AC#7 before HSV-1 infection (Figure S2); assay type: cell-based
# SARS-CoV 3CLpro = settings: cited from earlier work
# in vitro = settings: African green monkey
smiles,measurement,setting,value
CC[C@@H](NC(=O)[C@@H](CC(=O)[C@@H](CC(=O)[C@@H](NC(=O)[C@H](C(C)C)N(C)C(=O)[C@H](C)CC1CCCCC1)C(C)(C)C)CC(=O)C(C)(C)C)C1(C(=O)O)CCCC1)C(C)(C)C [BILD 1633 SE],Antiviral activity in vitro relative to ACV,HSV-1 [1]; in vitro,higher antiviral activity than ACV
same,Therapeutic effect against ACV-resistant HSV-1 infections,ACV-resistant HSV-1,potent therapeutic effect
"O=C(/C=C1\NCCc2cc3c(cc21)OCO3)c1cc2ccccc2o1 [AC#7, 1-(1-benzofuran-2-yl)-2-[(5Z)-2H,6H,7H,8H-[1,3]dioxolo [4,5-g]isoquinoline-5-ylidene]ethenone]",Toxicity at the highest concentration tested compared with DMSO control,VERO cells [2],negligible toxicity
same,Highest Concentration with Cell Viability above 75%,VERO cells [2],>100 µg/mL
same,viability at 24 h,[3],124%
same,Reduction of virus-induced plaques compared to DMSO control,"HSV-1 strain F [4]; 25 µM, virus preincubated 1 h, VERO",significantly reduced the number of virus-induced plaques
same,Dose dependence of antiviral response,"HSV-1 strain F [4]; 6.25-400 µM, pre-incubated with the virus, vs DMSO control",dose-dependent antiviral response
same,EC50,"HSV-1 strain F [4]; virus preincubated with AC 1 h, VERO",61 µg/mL
same,EC50,"HSV-1 strain F [4]; virus preincubated with AC 1 h, VERO, asymmetric nonlinear regression R2 = 0.84",183 µM
same,Antiviral activity at the viral inactivation stage,"HSV-1 strain F [5]; 10 µg/mL, virus preincubated with AC 1 h, MOI 5, VERO, vs DMSO control",significantly higher activity than the DMSO control
same,Toxicity to VERO cells,VERO cells [6],Negligible toxicity
same,Antiviral activity when cells were preincubated with AC prior to HSV-1 infection,"HSV-1 [7]; 10 µg/mL, 1 h before infection, MOI 5, VERO",No antiviral activity
same,Cell survival rate,"HSV-1 [7]; 10 µg/mL, cells pre-treated 1 h, MOI=5, 48 h",7.7%
same,inhibition at 10 µg/mL,"HSV-1 [7]; Human alphaherpesvirus 1, cells pre-treated 1 h, MOI=5, 48 h",0%
"O=C(CC1NC(=O)c2ccccc21)Nc1ccc2c(c1)C(=O)N1CCC[C@H]1C(=O)N2 (stereo partly drawn) [AC#28, N-((S)-5,11-dioxo-2,3,5,10,11,11a-hexahydro-1H-benzo[e]pyrrolo[1,2-a][1,4]diazepin-7-yl)-2-(3-oxoisoindolin-1-yl)acetamide]",Toxicity at the highest concentration tested compared with DMSO control,VERO cells [2],negligible toxicity
same,Highest Concentration with Cell Viability above 75%,VERO cells [2],>100 µg/mL
same,viability at 24 h,[3],105%
same,Antiherpetic activity in the in vitro assays,HSV-1 strain F [5],failed to show antiherpetic activity
COc1cc(/C=C/C(=O)CC(=O)/C=C/c2ccc(O)c(OC)c2)ccc1O [curcumin],EC50,HSV-1 [1]; antiviral activity,89.6 µM
CCOC(=O)/C=C/[C@H](C[C@@H]1CCNC1=O)NC(=O)[C@@H](CC(=O)[C@@H](NC(=O)c1cc(C)on1)C(C)C)Cc1ccc(F)cc1 [rupintrivir],Inhibition of SARS-CoV 3CLpro,SARS-CoV 3CLpro,weak to undetectable inhibition
"Nc1nc2c(ncn2COCCO)c(=O)[nH]1 [ACV, 9-((2-Hydroxyethoxy)methyl) guanine, reference compound]",EC50,"HSV-1 strain F [4]; added post-HSV infection, VERO, R2 > 0.99",0.77 µM
same,EC50,HSV-1 [1]; in vitro,~1 µM
"O=C1NC(=O)c2c1c1c3ccccc3[nH]c1c1[nH]c3ccccc3c21 [AC#29, Arcyriaflavin A]",Antiherpetic activity in the in vitro assays,HSV-1 strain F [5],failed to show antiherpetic activity
same,viability at 24 h,in vitro,86.2%
Cc1cc(O)c2c(c1)C(=O)c1cc(O)cc(O)c1C2=O [emodin],EC50,HSV-1 [1]; antiviral activity,21.5 to 195 µM
O=c1c(-c2c3cn[nH]c3nc3c2oc2cc(O)ccc23)cc2cccc3c2n1CC3 [AC#27],Toxicity at the highest concentration tested compared with DMSO control,VERO cells [2],negligible toxicity
same,Highest Concentration with Cell Viability above 75%,VERO cells [2],>100 µg/mL
same,viability at 24 h,[3],106%
same,Antiviral activity at the post-entry stage,"HSV-1 strain F [5]; 10 µg/mL, AC added 1 h after infection, MOI 5, VERO",possess antiherpetic activity
"C[C@H]1CCC[C@]2(C)C[C@H]3OC(=O)[C@H](CN4CCN(c5ccccc5)CC4)[C@H]3[C@@H]3O[C@@]132 [AC#16, (1Ar,2S,5Ar,6Ar,9S,9Ar,9Bs)-2,5a-dimethyl-9-((4-phenylpiperazin-1-yl)methyl)octahydro-2H-oxireno[2′,3′:4,4a]naphtho[2,3-b]furan-8(9Bh)-one]",Toxicity to the cells,VERO cells [2],exhibited toxicity
same,Highest Concentration with Cell Viability above 75%,VERO cells [2],1 µg/mL
same,viability at 24 h,[3],102%
"Cc1ccc(Cl)cc1N1CCN(C[C@H]2C(=O)O[C@@H]3C[C@@]4(C)CCC[C@H](C)[C@@]45O[C@H]5[C@@H]32)CC1 [AC#17, (1Ar,2S,5Ar,6Ar,9S,9Ar,9Bs)-9-( (4-(5-chloro-2-methylphenyl)piperazin-1-yl)methyl)-2,5a-dimethyloctahydro-2H-oxireno[2′,3′:4,4a]naphtho[2,3-b]furan-8(9Bh)-one]",Toxicity to the cells,VERO cells [2],exhibited toxicity
same,Highest Concentration with Cell Viability above 75%,VERO cells [2],1 µg/mL
same,viability at 24 h,[3],96.8%
O=C(O[C@@H]1Cc2c(O)cc(O)cc2O[C@@H]1c1cc(O)c(O)c(O)c1)c1cc(O)c(O)c(O)c1 [epigallocatechin gallate],EC50,HSV-1 [1]; antiviral activity,12.5 to 50 µM
"CN1CCN(C(=O)CCn2c3c(c4ccccc42)CCn2c-3nc3ccccc3c2=O)CC1 [AC#10, 13-[3-(4-methylpiperazin-1-yl)-3-oxopropyl]-8,13-dihydroindolo[2′,3′:3,4] pyrido [2,1-b]quinazolin-5(7H)-one]",Toxicity to the cells,VERO cells [2],exhibited toxicity
same,Highest Concentration with Cell Viability above 75%,VERO cells [2],1 µg/mL
same,viability at 24 h,[3],73.2%
